The text below walks through data of ChEMBL document CHEMBL1201862, “PubChem BioAssay data set” (2004).

Among the test systems are NCI-H460; HOP-62; MOLT-4; IGROV-1; A549; NCI-H23; SNB-75; OVCAR-4; ACHN; K562; HCT-15; COLO 205; SK-MEL-2; 786-0; CAKI-1; A498.
Common to all, as to assay: growth of human tumour cells (NCI), 48 h

Each structure is given as a SMILES string.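 Assay format: 96-well plates, 48-hour exposure. The concentration for 50% growth inhibition is given as GI50.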 The source made the active and inactive calls. Rule as the data show it: active = GI50 up to about 1.1 µM and inactive = higher.

In the case of `COc1ccc(C(=O)Cc2c(C(=O)c3ccccc3)c3ccccc3n2C(=O)c2ccccc2)cc1`, the GI50 with NCI-H460 is 26.4 µM (inactive); with HOP-62 it was > 100 µM (inactive); in the assay on MOLT-4, 25.6 µM (inactive); with IGROV-1, > 100 µM (inactive); in the assay with A549, 35.7 µM (inactive); in the assay on NCI-H23, 50.2 µM (inactive). For the same molecule, the GI50 is 18.3 µM (inactive) in the assay on SNB-75; 32.2 µM (inactive) in the assay with OVCAR-4; 53 µM (inactive) in the assay with ACHN; 51.3 µM (inactive) with K562; 46 µM in the assay with HCT-15; > 100 µM (inactive) in the assay with COLO 205. Moreover, the GI50 in the assay on SK-MEL-2, in the assay on 786-0 and in the assay with CAKI-1 was > 100 µM (inactive) throughout.
On to `BrC1(Br)C2/C=C\CCCCC21` (stereo not given), for which the GI50 in the assay with NCI-H460, in the assay on HOP-62, in the assay with MOLT-4, in the assay with IGROV-1, in the assay with A549 and in the assay with NCI-H23 was > 100 µM (inactive) in each case. Besides, the GI50 with OVCAR-4, with ACHN, with A498, with K562, in the assay on COLO 205 and in the assay on SK-MEL-2 was > 100 µM (inactive) in each case. Also, the GI50 with 786-0 and with CAKI-1 was > 100 µM (inactive) in each case.
Take `Cc1c(C(=O)/C=C/c2ccco2)[n+]([O-])c2ccccc2[n+]1[O-]`: the GI50 was > 100 µM (inactive) in the assay with NCI-H460; 39.6 µM (inactive) with MOLT-4; > 100 µM (inactive) in the assay with IGROV-1; > 100 µM (inactive) with A549; > 100 µM (inactive) in the assay on NCI-H23; > 100 µM (inactive) in the assay on SNB-75. Further, the GI50 in the assay on ACHN is > 100 µM (inactive); in the assay with A498, > 100 µM (inactive); in the assay on K562, 56.4 µM (inactive); with COLO 205, > 100 µM (inactive); in the assay with 786-0 it was > 100 µM (inactive); with CAKI-1, > 100 µM (inactive).
Take `Oc1cc(-c2ccccn2)nc2cccc(F)c12`: the GI50 in the assay with NCI-H460, with HOP-62, in the assay on MOLT-4, in the assay with IGROV-1, in the assay with A549 and with NCI-H23 was > 100 µM (inactive) each time. Moreover, the GI50 with SNB-75 is 51.4 µM (inactive); with OVCAR-4 it was > 100 µM (inactive); with ACHN it was > 100 µM (inactive); with K562, > 100 µM (inactive); with COLO 205, > 100 µM (inactive); in the assay on 786-0, > 100 µM (inactive).
Take `Cc1ccc(Oc2ccc(C)cc2N)cc1`: the GI50 is > 100 µM (inactive) in the assay with NCI-H460; > 100 µM (inactive) in the assay with HOP-62; 53 µM (inactive) in the assay with MOLT-4; > 100 µM (inactive) with IGROV-1; > 100 µM (inactive) in the assay on A549; 94.4 µM (inactive) in the assay with NCI-H23. In addition, the GI50 is 16.5 µM (inactive) in the assay on SNB-75; 68.9 µM (inactive) in the assay on OVCAR-4; > 100 µM (inactive) in the assay with A498; 60.8 µM (inactive) with K562; 48.5 µM with HCT-15; > 100 µM (inactive) in the assay on COLO 205. Further, the values for the GI50 in the assay with SK-MEL-2 and in the assay with 786-0 were > 100 µM (inactive) and 86.9 µM (inactive), respectively.
Take `CCCN1CC=CCC1`: the GI50 in the assay with NCI-H460, in the assay on MOLT-4, with IGROV-1, in the assay with A549, in the assay with NCI-H23 and in the assay on SNB-75 was > 100 µM (inactive) in each case. The GI50 with ACHN was > 100 µM (inactive); in the assay on A498 it was > 100 µM (inactive); in the assay with K562 it was < 0.01 µM (active); with HCT-15 it was greater than 100 µM; in the assay with COLO 205 it was > 100 µM (inactive); with SK-MEL-2, > 100 µM (inactive). Also, the GI50 in the assay on 786-0 was > 100 µM (inactive).
Consider `O=[N+]([O-])c1cccc(C2=NOC3C4CCC(C4)C23)c1` (stereo not given), for which the GI50 in the assay on NCI-H460, with HOP-62, in the assay on MOLT-4, with IGROV-1, in the assay with A549 and in the assay on NCI-H23 was > 100 µM (inactive) throughout. The GI50 in the assay on SNB-75 is > 100 µM (inactive); in the assay with OVCAR-4, > 100 µM (inactive); in the assay with ACHN, > 100 µM (inactive); with A498, > 100 µM (inactive); in the assay on HCT-15, greater than 100 µM; in the assay with COLO 205 it was > 100 µM (inactive). Also, the GI50 in the assay on SK-MEL-2 and in the assay on 786-0 was > 100 µM (inactive) throughout.
Consider `COc1ccc2nc(-c3ccc(OCc4ccccc4)cc3)ccc2c1`, for which the GI50 with NCI-H460, in the assay on HOP-62, with MOLT-4, in the assay with IGROV-1, in the assay on A549 and in the assay on NCI-H23 was > 100 µM (inactive) in each case. The GI50 with SNB-75, with OVCAR-4, with ACHN, with K562, with COLO 205 and with 786-0 was > 100 µM (inactive) each time.
Turning to `CCC1CN2CCc3c([nH]c4ccccc34)C2C[C@@H]1CC(=O)N(C)C` (stereo not given in full), the GI50 in the assay on NCI-H460, in the assay on HOP-62, in the assay on MOLT-4, with IGROV-1, in the assay on A549 and in the assay with NCI-H23 was > 100 µM (inactive) each time. The GI50 in the assay with SNB-75 is 21.4 µM (inactive); in the assay on OVCAR-4 it was > 100 µM (inactive); in the assay with ACHN, > 100 µM (inactive); with A498, > 100 µM (inactive); in the assay with K562, > 100 µM (inactive); in the assay with HCT-15 it was greater than 100 µM. Further, the GI50 in the assay with COLO 205, in the assay on SK-MEL-2 and in the assay on 786-0 was > 100 µM (inactive) each time.
Take `CC1C2=CC=C(O2)C(C)(C)C2=CC=C(O2)C(C)(C)C2=CC=C(O2)C(C)(C)C2=CC=C1O2`: the GI50 in the assay on NCI-H460, in the assay with HOP-62, in the assay with MOLT-4, in the assay with IGROV-1, in the assay with A549 and in the assay with NCI-H23 was > 100 µM (inactive) throughout. Moreover, the GI50 in the assay with OVCAR-4 is > 100 µM (inactive); with ACHN, > 100 µM (inactive); in the assay on A498, > 100 µM (inactive); in the assay with K562 it was > 100 µM (inactive); with HCT-15, greater than 100 µM; in the assay on COLO 205 it was > 100 µM (inactive). Besides, the GI50 in the assay with SK-MEL-2, in the assay on 786-0 and with CAKI-1 was > 100 µM (inactive) in each case.
`C#CCN(N=O)C(=O)NC(CCCCNC(=O)OCc1ccccc1)C(=O)OCc1ccccc1` (stereo not given): the GI50 with NCI-H460 was 61 µM (inactive); in the assay with HOP-62, > 100 µM (inactive); in the assay on MOLT-4, 16.8 µM (inactive); in the assay with IGROV-1, > 100 µM (inactive); in the assay with A549, 76.2 µM (inactive); with NCI-H23 it was 67.6 µM (inactive). The GI50 in the assay on SNB-75 was 33.5 µM (inactive); with OVCAR-4, 24.7 µM (inactive); in the assay with ACHN, 55.5 µM (inactive); in the assay on A498, > 100 µM (inactive); with K562 it was 20.5 µM (inactive); in the assay on HCT-15, 20.8 µM. The GI50 was 28.5 µM (inactive) with COLO 205, 37.8 µM (inactive) with SK-MEL-2 and 17.8 µM (inactive) in the assay with 786-0.
With `O=C(O)CNS(=O)(=O)c1ccc(NCc2ccccc2)cc1`, the GI50 in the assay with NCI-H460, in the assay with HOP-62, in the assay with MOLT-4, with IGROV-1, in the assay on A549 and in the assay on NCI-H23 was > 100 µM (inactive) throughout. In addition, the GI50 in the assay with SNB-75 was > 100 µM (inactive); in the assay on OVCAR-4 it was > 100 µM (inactive); in the assay on ACHN, > 100 µM (inactive); in the assay with K562 it was > 100 µM (inactive); with HCT-15 it was greater than 100 µM; with COLO 205 it was > 100 µM (inactive). In addition, the GI50 in the assay with SK-MEL-2, with 786-0 and in the assay with CAKI-1 was > 100 µM (inactive) each time.
As for `COC(=O)CCC(NC(=S)N/N=C(\C)c1cnc2ccccc2n1)C(=O)OC` (stereo not given), the GI50 in the assay on NCI-H460 is 45.9 µM (inactive); with HOP-62, 45.7 µM (inactive); in the assay with MOLT-4, 15.6 µM (inactive); in the assay on IGROV-1 it was 35.4 µM (inactive); in the assay with A549, 34.8 µM (inactive); in the assay on NCI-H23, 58.3 µM (inactive). For the same molecule, the GI50 in the assay with SNB-75 was 47.4 µM (inactive); in the assay on OVCAR-4, 25.9 µM (inactive); with ACHN it was 20.6 µM (inactive); in the assay on A498, 92.9 µM (inactive); with K562 it was 10.1 µM (inactive); in the assay on HCT-15, 35.1 µM. In addition, the results for the GI50 in the assay with COLO 205, in the assay with SK-MEL-2 and in the assay on 786-0 were 2.55 µM (inactive), 56.8 µM (inactive) and 43.6 µM (inactive), respectively.
With `COc1ccc2oc3c4c2c1CCC4CCC3=O` (stereo not given), the GI50 in the assay on NCI-H460 is > 100 µM (inactive); in the assay on HOP-62, > 100 µM (inactive); with MOLT-4 it was 52.8 µM (inactive); in the assay on IGROV-1, > 100 µM (inactive); with A549, > 100 µM (inactive); in the assay on NCI-H23, > 100 µM (inactive). In addition, the GI50 with SNB-75 is 28.1 µM (inactive); in the assay on OVCAR-4, 33 µM (inactive); with ACHN it was > 100 µM (inactive); in the assay with A498, 6.75 µM (inactive); with K562 it was > 100 µM (inactive); in the assay on COLO 205, > 100 µM (inactive). Also, the GI50 in the assay on SK-MEL-2 and in the assay with 786-0 was > 100 µM (inactive) each time.
